Like-named read-outs stand apart in the source and are kept apart here.
What was measured:
EO771 tumor [1] = type: in vivo, C57BL/6JNarl female mice; conditions: for survival rate: twice CTX, FIG. 1B
Method: The syngeneic orthotopic EO771 breast cancer mouse model (see Johnstone et al., Disease models & mechanisms, 8(3):237-251 (2015)) was used to evaluate the in vivo treatment efficacy.
C57BL/6JNarl female mice were purchased from National Laboratory Animal Center, Taiwan and housed under specific pathogenic-free condition in the animal facility of Institute of Molecular Biology, Academia Sinica, Taiwan. Mice were used between 8-to-12-week-old.
EO771 cell line (CH3 BioSystems) were cultured in complete medium (RPMI 1640 (Gibco) supplemented with 20 mM pH7.2 HEPES (Sigma-Aldrich), 10% fetal bovine serum (FBS; HyClone) and 1% Penicillin and Streptomycin (PS; Gibco)). B16-F10 melanoma was provided by Dr. Roffler, Steve R. (Institute of Biomedical Sciences, Academia Sinica, Taiwan) and cultured in complete medium (DMEM (Gibco) supplemented with 10% FBS (HyClone) and 1% PS (Gibco)). Tumor cells were cultured at 37° C. incubator with 5% CO2.
Bone marrow (BM) cells were obtained from Tibias and femurs. Red blood cells were lysed by ACK lysis buffer (0.15 M NH4Cl, 10 mM NaHCO3, 1 mM disodium EDTA (pH 7.4)). The BM cells were cultured in 10% FBS RPMI medium containing rmIL-15 for 7 days, and IL-12 was added 16 hours before harvesting. The harvested BM cells were stained with antibodies specific for CD19, H57, NK1.1, CD11 c and B220, and sorted for CD11c^+B220^+ NK cells using FACSAriaII SORP (BD Biosciences; FACS Core, Institute of Molecular Biology, Academia Sinica, Taiwan).
CTX was administrated on day-21 post tumor inoculation. The twice CTX-treatment group received the second CTX injection 6 days after the first treatment. Phosphate-buffered saline (PBS) was used as a negative control.
First, the effects of CTX monotherapy, NK monotherapy, or CTX and NK cell combined therapy on EO771 tumor-bearing mice were examined, following the assays described in Example 1 above. The treatment started on day-21 post tumor inoculation. […] FIG. 2. […] FIG. 2.

EO771 tumor [2] = type: in vivo, C57BL/6JNarl female mice
Text: Next, the effect of CTX monotherapy and CTX/NK cell combined therapy were examined in an EO771 tumor resection mouse model, which mimics patients whose tumor was surgically removed.
Tumor and draining lymph node were resected on day-21 post tumor inoculation, and CTX alone or in combination with NK cells were started two days after the resection. […] FIG. 4. […] FIG. 4. […] FIG. 4. […]

EO771 cells [3] = type: in vivo, C57BL/6JNarl female mice; conditions: tumor-resected mice
Text: Following the assays described in Example 1 above, it was examined in this Example whether CTX monotherapy and CTX/NK cell combined therapy would induce protective immune memory under tumor-resected condition. Mice survived after the treatment of primary EO771 tumor were re-challenged with EO771 cells. […] FIG. 5. […] FIG. 5.

EO771 cells [4] = test: EO771 re-challenge of tumor-bearing mice that survived the primary tumor after treatment
Method: The orthotopic syngeneic TMBC model was done by injection of EO771 cells into the 4th mammary fat pad of C57BL/6JNarl female mice. For the tumor-bearing model, each mouse was inoculated with 0.5×10^6 cells and received the first intra-peritoneal injection of CTX after 21 days. The second CTX injection was given 6 days later. Sorted CD11c^+B220^+ NK cells were transferred intravenously around 24 hours after the second CTX treatment, and followed with another NK cell transfer 3-4 days later. For the tumor-resect model, each mouse was inoculated with 0.3×10^6 EO771 cells, and the tumor and draining lymph node were resected 21 days later. CTX/NK treatment started at 48 hours after resection as described in the tumor-bearing model. […] The mice were monitored for survival, body weight, and tumor volume.
Kaplan-Meier survival analyses were performed using GraphPad Prism 7, and the Log-rank test was used to determine significance. Cox proportional hazard model was used to analyze hazard ratio and interaction [24]. P-value≤0.05 was considered statistically significant (*p≤0.05, **p≤0.01, ***p≤0.001, ****p≤0.0001).
To determine whether CTX/NK cell combined therapy would prevent or reduce the risk of tumor recurrence, mice who survived the primary tumor after the treatment were re-challenged with the same tumor cells to mimic cancer recurrence.
The cure rate was estimated by multiplying the primary and re-challenge survival rates.

[5] = tumor-bearing model, reference: no treatment
[6] = tumor-resection model, reference: no treatment (resection only)
[7] = primary survival rate × survival rate after EO771 re-challenge

## O=P1(N(CCCl)CCCl)NCCCO1 (stereo not shown) [CTX, cyclophosphamide]
EO771 tumor [1]; CTX once, 150 mg/kg per injection, day-21 post tumor inoculation, FIG. 1A
  mice survived for at least 120 days: 1 out of 8
EO771 tumor [1]; CTX twice, 6 days apart, 150 mg/kg per injection, from day 21, FIG. 1A
  mice survived for at least 120 days: 5 out of 8
EO771 tumor [1]; treatment started on day-21 post tumor inoculation, FIG. 2
  mice survived for at least 120 days: 62%
EO771 tumor [1]; tumor-bearing mice, survival post treatment in mice inoculated with tumor the first time
  Primary survival rate % (live/total): 62 (46/74) %
EO771 tumor [1]; [5]
  HR (95% CI), Frailty adjustment: 0.02 (0.009, 0.044)
  HR (95% CI), cluster adjustment: 0.024 (0.009, 0.066)
  HR (95% CI), without batch adjustment: 0.024 (0.012, 0.051)
EO771 tumor [1]; 6 days apart, 125 mg/kg per injection
  survival rate: 11%
EO771 tumor [1]; 6 days apart, 150 mg/kg per injection
  survival rate: 62%
EO771 tumor [2]; tumor resected mice, treatment started two days after resection, FIG. 4
  survival rate: 86%
EO771 tumor [2]; tumor-resected mice, survival post treatment in mice inoculated with tumor the first time
  Primary survival rate % (live/total): 86 (49/57) %
EO771 tumor [2]; [6]
  HR (95% CI), Frailty adjustment: 0.083 (0.036, 0.192)
  HR (95% CI), cluster adjustment: 0.086 (0.037, 0.201)
  HR (95% CI), without batch adjustment: 0.086 (0.040, 0.186)
EO771 cells [3]
  Tumor-free rate after EO771 re-challenge % (live/total): 30 (7/23) %
EO771 cells [3]; EO771 primary and re-challenge survival rates
  estimated cure rate: 26%
EO771 cells [3]; FIG. 5
  survival after EO771 re-challenge: 30%
EO771 cells [3]; [7]
  Estimated cure rate with immune protection (%): 26%
EO771 cells [4]
  Survival rate after EO771 re-challenge % (live/total): 90 (26/29) %
EO771 cells [4]; FIG. 3
  survived at least 120 days after the EO771 re-challenge: 90%
EO771 cells [4]; [7]
  Estimated cure rate with immune protection (%): 56%
EO771 cells [4]; primary × re-challenge survival rates
  estimated cure rate: 56%

From patent US20210361706A1 (priority 2018, published 2021)
